For the first experiment, the target named is Kelch-like ECH-associated protein 1 (Homo sapiens, UniProt Q14145).
Sequence of Kelch-like ECH-associated protein 1 (Q14145 whole entry): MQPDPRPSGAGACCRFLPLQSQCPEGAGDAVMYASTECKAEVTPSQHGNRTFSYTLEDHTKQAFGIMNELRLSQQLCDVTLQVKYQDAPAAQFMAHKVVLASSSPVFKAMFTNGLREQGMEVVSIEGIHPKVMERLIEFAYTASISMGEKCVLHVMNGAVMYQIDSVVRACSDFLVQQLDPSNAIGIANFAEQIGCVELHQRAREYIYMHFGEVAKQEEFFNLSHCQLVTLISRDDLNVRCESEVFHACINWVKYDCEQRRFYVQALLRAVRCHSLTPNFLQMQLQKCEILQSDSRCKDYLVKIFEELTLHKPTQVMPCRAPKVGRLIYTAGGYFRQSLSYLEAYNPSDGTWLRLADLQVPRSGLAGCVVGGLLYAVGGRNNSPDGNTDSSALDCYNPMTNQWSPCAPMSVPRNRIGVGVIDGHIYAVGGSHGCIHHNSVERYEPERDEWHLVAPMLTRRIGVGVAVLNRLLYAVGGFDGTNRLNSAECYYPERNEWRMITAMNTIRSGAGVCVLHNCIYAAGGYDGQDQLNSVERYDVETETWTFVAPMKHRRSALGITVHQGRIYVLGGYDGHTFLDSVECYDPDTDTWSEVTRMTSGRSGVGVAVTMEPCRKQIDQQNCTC
Turning to `CCCC1CCCCN1C(=O)c1cccc(-c2cccc(-n3ncc(C(=O)O)c3C3CC3c3ccccn3)c2)c1` (stereo unspecified), the concentration for half-maximal inhibition (IC50) (in general, the concentration at which inhibition is half-maximal) was 42 nM.

In the next experiment the target is T1, Nuclear factor erythroid 2-related factor 2 (Homo sapiens, UniProt Q16236).
T1 sequence (Q16236 whole entry): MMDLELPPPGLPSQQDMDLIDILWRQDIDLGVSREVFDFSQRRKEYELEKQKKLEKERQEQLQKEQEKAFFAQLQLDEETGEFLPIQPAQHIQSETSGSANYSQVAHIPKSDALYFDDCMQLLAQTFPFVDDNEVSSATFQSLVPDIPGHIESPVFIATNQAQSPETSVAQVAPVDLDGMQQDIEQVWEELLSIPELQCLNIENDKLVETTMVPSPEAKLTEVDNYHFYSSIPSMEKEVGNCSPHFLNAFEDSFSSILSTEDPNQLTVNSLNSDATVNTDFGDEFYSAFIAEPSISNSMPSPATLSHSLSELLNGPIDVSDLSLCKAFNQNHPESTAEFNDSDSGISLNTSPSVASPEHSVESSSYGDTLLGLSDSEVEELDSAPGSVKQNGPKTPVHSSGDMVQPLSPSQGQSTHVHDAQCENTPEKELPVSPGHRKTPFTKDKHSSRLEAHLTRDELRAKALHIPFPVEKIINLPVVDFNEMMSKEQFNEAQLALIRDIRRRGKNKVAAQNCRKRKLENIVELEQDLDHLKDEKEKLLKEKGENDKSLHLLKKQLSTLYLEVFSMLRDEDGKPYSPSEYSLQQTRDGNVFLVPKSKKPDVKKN
Kind of experiment: Induction of Nrf2 in human BEAS-2B cells assessed as increase in NQO1 protein level incubated for 48 hrs by MTT assay. Background: Tetrazolium assays rely on reduction of a dye to a coloured formazan, in cell work by metabolically active cells.
As for `CN(C)C(=O)c1cccc(-c2cccc(-n3ncc(C(=O)O)c3C3CC3)c2)c1`, the 50% effective concentration (EC50) – broadly, the concentration that produces a half-maximal response – is 1400 nM.

Consider `CCC[C@H]1CCCCN1C(=O)c1cccc(-c2cccc(-n3ncc(C(=O)O)c3C3CC3)c2)c1F`, for which the EC50 is 3500 nM.

For `CCCCC1CCCN1C(=O)C1CCCC(c2cccc(-n3ncc(C(=O)O)c3C3CC3)c2)C1` (stereo unspecified), the EC50 turned out to be 4400 nM.

For the molecule `CN(C)C(=O)[C@H]1CCC[C@@H](c2cccc(-n3ncc(C(=O)O)c3C3CC3)c2)C1`, the EC50 worked out at 1700 nM.

For the molecule `CCCC1CCCCN1C(=O)c1cccc(-c2cccc(-n3ncc(C(=O)O)c3C3CC3c3cccnn3)c2)c1` (stereo unspecified), the concentration giving a half-maximal response (EC50) was determined as 2800 nM.

`O=C(O)c1cnn(-c2cccc([C@@H]3CCC[C@H](C(=O)N4CCCCC4)C3)c2)c1C1CC1`: the EC50 was found to be 2700 nM.

For the molecule `CCCC1CCCCN1C(=O)c1cccc(-c2cccc(-n3ncc(C(=O)O)c3C3CC3c3ccccn3)c2)c1` (stereo unspecified), the EC50 was 3800 nM.

As for `CCC[C@@H]1CCCCN1C(=O)c1cccc(-c2cccc(-n3ncc(C(=O)O)c3[C@H]3C[C@@H]3c3cn(C)nn3)c2)c1`, the 50% effective concentration (EC50) was found to be 43 nM.

For `CN(CC1CC1)C(=O)c1cccc(-c2cccc(-n3ncc(C(=O)O)c3C3CC3)c2)c1F`, the EC50 was 2200 nM.

In the case of `CCCC1COCCN1C(=O)c1cccc(-c2cccc(-n3ncc(C(=O)O)c3C3CC3)c2)c1F` (stereo unspecified), the EC50 was determined as 2500 nM.

On to `CCCC1CCCCN1C(=O)C1CCCC(c2cccc(-n3ncc(C(=O)O)c3C3CC3)c2)C1` (stereo unspecified), for which the EC50 worked out at 4100 nM.

In the case of `CN(C)C(=O)c1cccc(-c2cccc(-n3ncc(C(=O)O)c3C3CC3)c2)c1F`, the half-maximal effective concentration (EC50) was 1300 nM.

`CCCC1CCCCN1C(=O)c1cccc(-c2cccc(-n3ncc(C(=O)O)c3C3CC3c3cn(C)nn3)c2)c1` (stereo unspecified): the EC50 came out at 120 nM.

In the case of `CCCC[C@@H]1CCCN1C(=O)[C@H]1CCC[C@@H](c2cccc(-n3ncc(C(=O)O)c3C3CC3)c2)C1`, the concentration for a half-maximal effect (EC50) was found to be 4300 nM.

For the molecule `CCC[C@@H]1CCCCN1C(=O)c1cccc(-c2cccc(-n3ncc(C(=O)O)c3[C@@H]3C[C@H]3c3cn(C)nn3)c2)c1`, the EC50 was over 5000 nM.

Turning to `O=C(O)c1cnn(-c2cccc(-c3cccc(C(=O)N(CC4CC4)CC4CC4)c3F)c2)c1C1CC1`, the 50% effective concentration (EC50) was determined as 3500 nM.

On to `O=C(O)c1cnn(-c2cccc(-c3cccc(C(=O)N4CCCC5(CCCC5)C4)c3F)c2)c1C1CC1`, for which the EC50 came to 3700 nM.

As to `O=C(O)c1cnn(-c2cccc(-c3cccc(C(=O)N4CCCCC4)c3F)c2)c1C1CC1`, the EC50 came to 2300 nM.

On to `CCCC1CCCCN1C(=O)c1cccc(-c2cccc(-n3ncc(C(=O)O)c3C3CC3c3cccnc3)c2)c1` (stereo unspecified), for which the EC50 turned out to be 3200 nM.

As to `CCC[C@@H]1CCCCN1C(=O)c1cccc(-c2cccc(-n3ncc(C(=O)O)c3C3CC3)c2)c1F`, the EC50 turned out to be 3500 nM.

The values above are taken from BindingDB's records for PubMed 34705450 (Astex Pharmaceuticals, 2021).
